Some test systems named below: UACC-257; TK-10; KM12; CCRF-CEM; SF-539; OVCAR-3; M14; 786-0; MDA-MB-435; SNB-19; SR; NCI-H226; HCT-116; Malme-3M; A549; DU-145; U-251; SW-620; NCI-H460; CAKI-1.
Assay in all cases: NCI tumour cell line growth inhibition, 48 h

Data on 11 molecules can be found in ChEMBL document CHEMBL1201862, “PubChem BioAssay data set” (2004).

“And” between values parts separate entries of the source, which are not always exact repeats. Identical values can stand only once.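 Results reflect a 48-hour exposure of cells in 96-well plates to compound at five concentrations. GI50: concentration for 50% inhibition of growth.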 The source made the active and inactive calls. Rule as the data show it: active = GI50 up to about 1.1 µM and inactive = higher. Some results are limits rather than exact numbers.

As for `CC(=O)C(=[N+]=[N-])C(=O)N(C)CCC#N`, the GI50 in the assay on UACC-257, with TK-10, in the assay on KM12, in the assay on CCRF-CEM, in the assay with SF-539 and in the assay on OVCAR-3 was > 10 µM (inactive) in each case. Besides, the GI50 in the assay on M14, with 786-0, in the assay on MDA-MB-435, with SNB-19, in the assay on SR and in the assay on NCI-H226 was > 10 µM (inactive) in each case. The GI50 with HCT-116, with Malme-3M, in the assay with A549, in the assay on DU-145, in the assay with U-251 and with SW-620 was > 10 µM (inactive) throughout. Further, the GI50 in the assay with NCI-H460 was > 10 µM (inactive).

In the case of `CN(C)c1ccc(/N=N/c2ccc3[nH]cnc3c2)cc1`, the GI50 with UACC-257 is 23 µM (inactive); in the assay on TK-10, 22.5 µM (inactive); with KM12, 29.2 µM (inactive); with CCRF-CEM, 19.4 µM (inactive); in the assay with SF-539, 17.8 µM (inactive); in the assay on M14, 21.4 µM (inactive). The GI50 was 42.2 µM (inactive) in the assay on CAKI-1; 18.2 µM (inactive) in the assay with 786-0; 19.5 µM (inactive) in the assay with MDA-MB-435; 41.8 µM (inactive) in the assay with SNB-19; 25.1 µM (inactive) in the assay on SR; 34 µM (inactive) with NCI-H226. The GI50 is 18 µM (inactive) with HCT-116; 25.2 µM (inactive) in the assay with Malme-3M; 29.7 µM (inactive) in the assay on A549; 27.4 µM (inactive) in the assay with DU-145; 24.5 µM (inactive) in the assay with U-251; 29.6 µM (inactive) in the assay with SW-620. For the same molecule, the GI50 in the assay with NCI-H460 was 18.8 µM (inactive).

On to `O=Cc1ccc(Oc2c3ccccc3nc3ccccc23)cc1`, for which the GI50 in the assay on UACC-257 was 0.346 µM (active); with TK-10, 6.03 µM (inactive); in the assay on KM12, 11.1 µM (inactive); in the assay on CCRF-CEM, 2.71 µM (inactive); in the assay on SF-539, 1.76 µM (inactive); in the assay with OVCAR-3, 10.9 µM (inactive). The GI50 in the assay with M14 was 3.44 µM (inactive); with CAKI-1 it was 7.05 µM (inactive); in the assay with 786-0 it was 2.32 µM (inactive); in the assay on MDA-MB-435, 2.45 µM (inactive); in the assay with SNB-19, 16.4 µM (inactive); in the assay on SR, 0.053 µM (active). Also, the GI50 with NCI-H226 was 4.03 µM (inactive); with HCT-116, 2.14 µM (inactive); with Malme-3M it was 11.8 µM (inactive); in the assay with A549, 18.8 µM (inactive); in the assay with DU-145, 3.84 µM (inactive); in the assay on U-251 it was 5.27 µM (inactive). Also, the GI50 in the assay on NCI-H460 is 16 µM (inactive).

With `CCCC(=O)OC1C(C(O)CO)OC2OC(C)(C)OC21` (centres undefined), the GI50 in the assay with UACC-257, in the assay with TK-10, with KM12, in the assay on SF-539, in the assay with OVCAR-3 and in the assay with M14 was > 100 µM (inactive) throughout. Moreover, the GI50 in the assay on CAKI-1, with 786-0, with MDA-MB-435, in the assay on SNB-19, in the assay on SR and with NCI-H226 was > 100 µM (inactive) in each case. In addition, the GI50 in the assay on HCT-116, in the assay on Malme-3M, in the assay with A549, in the assay with DU-145, with U-251 and in the assay with SW-620 was > 100 µM (inactive) in each case. Further, in the assay on NCI-H460, the GI50 is > 100 µM (inactive).

For `CCOC(=O)c1ccc(NCC#CCN2CCOCC2)cc1`, the GI50 with KM12 was > 100 µM (inactive); in the assay on CCRF-CEM it was 60.1 µM (inactive); in the assay on SF-539, > 100 µM (inactive); in the assay with OVCAR-3, > 100 µM (inactive); with M14, 29.7 µM (inactive); in the assay with 786-0 it was > 100 µM (inactive). For the same molecule, the GI50 was > 100 µM (inactive) with MDA-MB-435; > 100 µM (inactive) with SNB-19; > 100 µM (inactive) in the assay with SR; 70.3 µM (inactive) in the assay with NCI-H226; 53 µM (inactive) in the assay with HCT-116; > 100 µM (inactive) in the assay with Malme-3M. Besides, the GI50 was 83.9 µM (inactive) in the assay with A549, > 100 µM (inactive) in the assay with DU-145, > 100 µM (inactive) in the assay on U-251 and > 100 µM (inactive) with SW-620.

On to `CC1(C)CN=C(Nc2ccc(F)c(F)c2)S1`, for which the GI50 in the assay with UACC-257, in the assay on TK-10, in the assay with KM12, in the assay on CCRF-CEM, with SF-539 and in the assay with OVCAR-3 was > 100 µM (inactive) in each case. For the same molecule, the GI50 in the assay with M14, with CAKI-1, in the assay with 786-0, with MDA-MB-435, with SNB-19 and with SR was > 100 µM (inactive) each time. The GI50 with NCI-H226, in the assay with HCT-116, with Malme-3M, with A549, with DU-145 and in the assay on U-251 was > 100 µM (inactive) each time. For the same molecule, the GI50 in the assay with SW-620 was > 100 µM (inactive).

Regarding `CC(C(=O)N1C(=O)N(C(=O)C(C)C(O)c2ccccc2)C(c2ccccc2)C1c1ccccc1)C(O)c1ccccc1` (centres undefined), the GI50 in the assay on TK-10 was 22.6 µM (inactive); with KM12, 3.34 µM (inactive); in the assay on CCRF-CEM, 5.56 µM (inactive); in the assay with SF-539, 6.25 µM (inactive); in the assay on OVCAR-3 it was 5.94 µM (inactive); in the assay with M14, 10.5 µM (inactive). Further, the GI50 in the assay with 786-0 was 26.1 µM (inactive); with MDA-MB-435, 15 µM (inactive); in the assay on SNB-19, 5.52 µM (inactive); with SR it was 3.61 µM (inactive); in the assay with NCI-H226, 12.4 µM (inactive); in the assay on HCT-116 it was 6.21 µM (inactive). Further, the GI50 in the assay on Malme-3M is 12.2 µM (inactive); with A549, 4.85 µM (inactive); in the assay on DU-145, 21.3 µM (inactive); in the assay with U-251 it was 10.4 µM (inactive); in the assay with SW-620 it was 28.7 µM (inactive); in the assay with NCI-H460, 4.25 µM (inactive).

Turning to `O=C1C(=O)N(c2cccc(C(F)(F)F)c2)C(=S)N1c1ccccc1`, the GI50 with UACC-257 was 25.8 µM (inactive); in the assay on TK-10 it was 2.84 µM (inactive); in the assay with KM12, 31.4 µM (inactive); in the assay on CCRF-CEM it was 35.9 µM (inactive); with SF-539 it was 26.1 µM (inactive); with CAKI-1, 29.2 µM (inactive). Moreover, the GI50 in the assay with 786-0 was 33.3 µM (inactive); in the assay with MDA-MB-435 it was 27.4 µM (inactive); with SNB-19 it was 40.5 µM (inactive); in the assay with SR, 37.2 µM (inactive); with NCI-H226 it was 24.5 µM (inactive); in the assay with HCT-116 it was 31.7 µM (inactive). Further, the GI50 with Malme-3M was 31.8 µM (inactive); with A549 it was 33.3 µM (inactive); in the assay on DU-145 it was 22.2 µM (inactive); in the assay with U-251, 31.6 µM (inactive); in the assay on SW-620, 36.2 µM (inactive); in the assay with NCI-H460, 2.32 µM (inactive).

Regarding `COC(=O)C1=COC(C)C2CN3CCc4c([nH]c5cc(OC)c(OC)cc45)C3CC12` (centres undefined), the GI50 was > 100 µM (inactive) with UACC-257; > 100 µM (inactive) and 87.1 µM (inactive) with TK-10; > 100 µM (inactive) and 66.7 µM (inactive) in the assay on SF-539; 58.3 µM (inactive) with OVCAR-3; > 100 µM (inactive) and 65.9 µM (inactive) with M14; > 100 µM (inactive) in the assay on CAKI-1. For the same molecule, the GI50 in the assay with 786-0 is > 100 µM (inactive) and 73.8 µM (inactive); with MDA-MB-435 it was > 100 µM (inactive) and 72.6 µM (inactive); with SNB-19 it was 66.8 µM (inactive) and 75.3 µM (inactive); in the assay with SR it was 31 µM (inactive) and 58.6 µM (inactive); with NCI-H226, > 100 µM (inactive) and 61.5 µM (inactive); with Malme-3M it was > 100 µM (inactive). The GI50 with A549 was 96.8 µM (inactive) and 49.5 µM (inactive); in the assay on DU-145, > 100 µM (inactive) and 98.9 µM (inactive).

Take `CCSc1nnc2c(-c3ccccc3)n[nH]c2n1`: the GI50 in the assay on UACC-257 was > 100 µM (inactive); in the assay on TK-10, > 100 µM (inactive); in the assay with KM12, > 100 µM (inactive); with CCRF-CEM, 24.3 µM (inactive); with SF-539, 90.8 µM (inactive); in the assay with OVCAR-3 it was > 100 µM (inactive). For the same molecule, the GI50 was > 100 µM (inactive) in the assay on M14; > 100 µM (inactive) in the assay on CAKI-1; 86.7 µM (inactive) in the assay with 786-0; > 100 µM (inactive) in the assay with MDA-MB-435; > 100 µM (inactive) in the assay with SNB-19; > 100 µM (inactive) in the assay with SR. The GI50 with NCI-H226, with HCT-116, with A549, in the assay on DU-145, with U-251 and in the assay on SW-620 was > 100 µM (inactive) in each case. Moreover, the GI50 with NCI-H460 was > 100 µM (inactive).

For `O=c1c2cc(I)ccc2nc(Sc2ncccc2[N+](=O)[O-])n1Cc1ccccc1`, the GI50 is 23.2 µM (inactive) in the assay on UACC-257; 37.2 µM (inactive) in the assay on TK-10; 27.4 µM (inactive) in the assay on KM12; 0.249 µM (active) with CCRF-CEM; 32.2 µM (inactive) in the assay with SF-539; 22 µM (inactive) in the assay on OVCAR-3. The GI50 was 28.3 µM (inactive) with M14; 25.8 µM (inactive) with CAKI-1; 23.2 µM (inactive) with 786-0; 23.7 µM (inactive) in the assay with MDA-MB-435; 45.9 µM (inactive) in the assay on SNB-19; 7.08 µM (inactive) in the assay with SR. The GI50 in the assay on NCI-H226 was 22.3 µM (inactive); in the assay with HCT-116 it was 18.8 µM (inactive); in the assay on A549, 28 µM (inactive); in the assay with DU-145, 22.5 µM (inactive); with U-251 it was 35.2 µM (inactive); in the assay on SW-620, 33.1 µM (inactive). For the same molecule, in the assay with NCI-H460, the GI50 was 29.4 µM (inactive).
